Data reported in ChEMBL document CHEMBL1124699, “3-Hydroxy-3-methylglutaryl-coenzyme A reductase inhibitors. 6. Trans-6-[2-(substituted-1-naphthyl)ethyl(or ethenyl)]-3,4,5,6-tetrahydro-4-hydroxy-2H-pyran-2-ones” (J Med Chem, 1990).

Key:
[1] = molecular target: T1, 3-hydroxy-3-methylglutaryl-coenzyme A reductase (Rattus norvegicus) (UniProt P51639); assay: Potency against HMG-CoA reductase relative to Compactin
T1 sequence (whole entry): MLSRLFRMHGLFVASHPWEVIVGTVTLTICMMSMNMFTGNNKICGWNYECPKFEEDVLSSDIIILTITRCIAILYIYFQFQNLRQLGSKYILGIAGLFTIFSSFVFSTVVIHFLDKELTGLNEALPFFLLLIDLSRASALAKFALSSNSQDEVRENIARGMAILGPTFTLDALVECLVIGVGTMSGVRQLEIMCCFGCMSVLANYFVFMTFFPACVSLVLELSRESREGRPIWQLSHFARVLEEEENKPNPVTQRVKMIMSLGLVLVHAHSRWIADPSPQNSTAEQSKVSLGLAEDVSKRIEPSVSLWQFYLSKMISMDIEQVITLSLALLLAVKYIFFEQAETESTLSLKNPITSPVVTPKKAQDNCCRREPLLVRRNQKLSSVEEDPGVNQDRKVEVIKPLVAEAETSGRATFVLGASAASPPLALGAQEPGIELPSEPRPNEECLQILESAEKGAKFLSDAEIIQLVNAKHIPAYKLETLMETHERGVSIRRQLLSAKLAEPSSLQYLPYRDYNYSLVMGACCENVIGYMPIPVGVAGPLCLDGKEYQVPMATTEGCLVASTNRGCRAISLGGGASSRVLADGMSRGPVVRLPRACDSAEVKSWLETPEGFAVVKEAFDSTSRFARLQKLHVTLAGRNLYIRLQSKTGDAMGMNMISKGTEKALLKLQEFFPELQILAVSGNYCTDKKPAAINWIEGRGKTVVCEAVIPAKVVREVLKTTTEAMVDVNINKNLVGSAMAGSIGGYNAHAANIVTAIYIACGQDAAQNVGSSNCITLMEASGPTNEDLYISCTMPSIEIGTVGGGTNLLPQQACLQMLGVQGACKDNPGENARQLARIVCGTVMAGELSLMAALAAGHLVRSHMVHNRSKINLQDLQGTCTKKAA

[2] = molecular target: T2, 3-hydroxy-3-methylglutaryl-coenzyme A reductase (Rattus norvegicus, UniProt P51639); assay: Inhibitory activity against HMG-CoA reductase
T2 sequence (P51639 whole entry): T1 sequence (whole entry)

Cc1cc(C)c2ccc(Cl)cc2c1CCC1C[C@@H](O)CC(=O)O1 (some centres undefined)
Relative potency [1]: 7 | IC50 [2]: 200 nM

Cc1cc(Cl)c2ccc(Cl)cc2c1CCC1C[C@@H](O)CC(=O)O1 (some centres undefined)
Relative potency [1]: 30 | IC50 [2]: 60 nM

O=C1C[C@H](O)C[C@@H](/C=C/c2ccc(Br)c3ccccc23)O1
Relative potency [1]: 0.96 | IC50 [2]: 4000 nM

O=C1C[C@H](O)CC(CCc2cccc3ccccc23)O1 (some centres undefined)
Relative potency [1]: 0.043 | IC50 [2]: 81000 nM

O=C1C[C@H](O)C[C@@H](/C=C/c2c(Cl)ccc3ccccc23)O1
Relative potency [1]: 2.3 | IC50 [2]: 1510 nM

O=C1C[C@H](O)CC(CCc2c(Cl)cc(Cl)c3ccc(Cl)cc23)O1 (some centres undefined)
Relative potency [1]: 47 | IC50 [2]: 32 nM

Cc1cc(Cl)c(CCC2C[C@@H](O)CC(=O)O2)c2cc(Cl)ccc12 (some centres undefined)
Relative potency [1]: 15 | IC50 [2]: 130 nM

O=C1C[C@H](O)CC(CCc2c(Cl)cc(Cl)c3cc(Cl)ccc23)O1 (some centres undefined)
Relative potency [1]: 46 | IC50 [2]: 33 nM

O=C1C[C@H](O)C[C@@H](/C=C/c2cccc3cccc(Br)c23)O1
Relative potency [1]: 0.72 | IC50 [2]: 4120 nM

Cc1ccc2c(C)cc(C)c(CCC3C[C@@H](O)CC(=O)O3)c2c1 (some centres undefined)
Relative potency [1]: 5 | IC50 [2]: 360 nM

O=C1C[C@H](O)CC(CCc2ccc(Br)c3ccccc23)O1 (some centres undefined)
Relative potency [1]: 0.15 | IC50 [2]: 23300 nM

O=C1C[C@H](O)CC(CCc2ccc(Cl)c3cc(Cl)ccc23)O1 (some centres undefined)
Relative potency [1]: 0.3 | IC50 [2]: 7000 nM
